The record followed here is ChEMBL document CHEMBL1158868, “Bioactive and other sesquiterpenes from Chiloscyphus rivularis” (J Nat Prod, 1997).

Values after ≈ are worked out from the molar mass of the structure shown. Active and inactive are the calls of the source. The rule behind the calls is not given here.

The subject of test [1] is Saccharomyces cerevisiae. The test is described as follows: Antimicrobial activity against rad52 gene deficient and DNA repair deficient yeast RS322. The format is functional.
Test [2] has as its system Saccharomyces cerevisiae. The test is described as follows: Antimicrobial activity against rad gene expressing and DNA repair proficient wild type yeast RS188N. The format is functional.
Test [3] concerns Saccharomyces cerevisiae. The test is described as follows: Antimicrobial activity against rad52.top1 gene deficient yeast RS321. In kind it is functional.
Another test relates to A549. The test is described as follows: Cytotoxicity against human A549 cells. The format is functional, cell-based.
Test [4] in a line: Cytotoxicity against human NCI60 cells. In kind it is functional.

As for `C=C(CO)C(=O)[C@H]1CCC2=CCC[C@H](C)[C@]21C`, the IC12 in the test on Saccharomyces cerevisiae [1] is 75 µg/mL; in the test on Saccharomyces cerevisiae [2], 88 µg/mL; in the test with Saccharomyces cerevisiae [3], > 1000 µg/mL. Besides, in the test on A549, the IC50 (commonly the point on the concentration scale where inhibition reaches its midpoint) was 2 µg/mL (≈ 8.53 µM). Moreover, halving of growth in test [4] (GI50) required 10 µM.

Turning to `C=C(C)C(=O)[C@H]1CCC2=CC(=O)C[C@H](C)[C@]21C`, the IC12 in the test with Saccharomyces cerevisiae [1] was > 500 µg/mL. Consider `C[C@H]1CCC=C2CC[C@H](C(=O)C(O)(CO)CO)[C@@]21C`, for which the outcome with Saccharomyces cerevisiae [1] was inactive. For `C[C@H]1CC[C@@H](O)[C@]23CC[C@H](C(=O)O2)[C@]13C` [RIVULALACTONE], in the test with Saccharomyces cerevisiae [1], the IC12 was > 500 µg/mL. Turning to `C[C@H]1CCC=C2CC[C@H](C(=O)C3(CO)CO3)[C@@]21C` (stereo partly specified), in the test on Saccharomyces cerevisiae [1], the outcome was inactive. Turning to `C=C(C)C(=O)[C@H]1CC(=O)C2=CC(=O)C[C@H](C)[C@]21C`, in the test with Saccharomyces cerevisiae [1], the IC12 was > 500 µg/mL.

Take `C=C(CO)C(=O)[C@H]1CCC2=CC(=O)C[C@H](C)[C@]21C`: the IC12 with Saccharomyces cerevisiae [1] was > 500 µg/mL.
